What was measured:
GST-Xa-hAAK1 = target: T1, GST-Xa-hAAK1 (Homo sapiens, UniProt Q2M2I8); assay: AAK1 Kinase Assay; assay type: biochemical; conditions: ATP 22 μM
T1 construct: made in house
Description: The assays were performed in U-bottom 384-well plates. The final assay volume was 30 μl prepared from 15 μl additions of enzyme and substrates (fluoresceinated peptide (5-FAM)-Aha-[…]-NH2 and ATP) and test compounds in assay buffer (10 mM Tris-HCL pH 7.4, 10 mM MgCl2, 0.01% Tween-20 and 1.0 mM DTT). The reactions were initiated by the combination of bacterially expressed, GST-Xa-hAAK1 with substrates and test compounds. The reactions were incubated at room temperature for 3 hours and terminated by adding 60 μl of 35 mM EDTA buffer to each sample. The reactions were analyzed on the Caliper LabChip 3000 (Caliper, Hopkinton, Mass.) by electrophoretic separation of the fluorescent substrate and phosphorylated product. […] The final concentration of reagents in the assays are ATP, 22 μM; (5-FAM)-Aha-[…]-NH2, 1.5 μM; GST-Xa-hAAK1, 3.5 nM; and DMSO, 1.6%. Dose response curves were generated to determine the concentration required inhibiting 50% of kinase activity (IC50). Compounds were dissolved at 10 mM in dimethylsulfoxide (DMSO) and evaluated at eleven concentrations. IC50 values were derived by non-linear regression analysis.

[1] = target: AAK1 (full length human) in HEK293F cells (Homo sapiens, UniProt Q2M2I8); assay: HEK293F Cell-Based Assay (phospho-mu2 Western blot); conditions: 3 hours, IC50 ranges
Description: HEK293F cells were cultured in media containing DMEM (Gibco, cat. #11965), 10% FBS (SAFC Biosciences, cat. #12103C), 1×GPS (glutamine, penicillin and streptomycin). On day one, cells were plated on a 10 cm dish so that they are ˜80% confluent at time of transfection. Roughly 12 million cells were in a 10 cm dish at time of transfection. On day two, each dish was transfected with 48 ug DNA and 144 ul Lipofectamine 2000 (Invitrogen, cat. #11668-019). The DNA was comprised of a mixture (per 10 cm dish) containing 3 ug AAK1/HA/pIRES (full length human, NCBI accession no. NP_055726.2), 45 μg Flag/AP2MI/pcDNA (full length human), and 1.5 ml OPTI-MEM. The Lipofectamine 2000 is made up of a mixture (per 10 cm dish) containing 144 μl Lipofectamine 2000 and 1.5 ml OPTI-MEM. Each mixture was transferred to individual 15 ml tubes and incubated at RT for 5 minutes, and then the two mixes were combined and incubated at RT for 20 minutes. Growth media was then aspirated from each 10 cm plate and replaced with 10 ml of DMEM+10% FBS (no GPS). Finally, 3 ml DNA/Lipofectamine mix was added to each 10 cm dish and mix gently followed by incubate of plate overnight at 37° C. and 5% CO2.
On day three, compounds were diluted in 100% DMSO at 1000× final concentration, followed by 3-fold serial dilutions for a total of 5 concentrations tested. Four compounds were tested per 10 cm dish. One ul of each compound dilution was then pipetted into a deep-well, 96-well plate, followed by addition of 500 μl DMEM+0.5% FBS into each well for a 2× final concentration of each compound. Cells were resuspended in a 10 cm dish by simple pipetting (HEK293 cells come off the plate that easy at this point) and then transferred to a 50 ml conical tube and pelleted by centrifugation at 1000 rpm for 5 min. Cell pellets were then resuspended in 2.75 ml DMEM+0.5% FBS per 10 cm dish and 100 μl of cell suspension transferred into each well of 96-well TC plate. Finally, 100 μl of 2× compound diluted in DMEM+0.5% FBS was then added into wells containing cell suspension for a 1× final concentration. Plates were then incubated at 37° C. and 5% CO2 for 3 hours followed by transferring of cell suspensions from each well into 12-tube PCR strips. The PCR strips were spun in a tip rack at 1000 rpm for 5 minutes to pellet cells and media was then removed by pipetting without disturbing the cell pellet.
To prepare for Western Blot analysis, cell pellets were resuspend in 40 ul 1× LDS-PAGE sample buffer (Invitrogen, cat. # NP0008)+2× Halt phophatase and protease inhibitor cocktail (Thermo Scientific, cat. #1861284), followed by sonicating each with microtip sonicator set at 5 for 8-10 seconds. Five ul of 10× NuPage Sample Reducing Agent (with 50 mM DTT) was to each sample followed by heat denaturing at 70 C for 10 min on PCR machine. A total of 10 μl per sample was loaded into each lane of a 4-20% Tris-Glycine Criterion 26-well gel (Biorad, cat. #345-0034) for the phospho-mu2 blot and 10 μl per lane in a 4-12% Bis-Tris (+MES buffer) NuPAGE 26-well gel (Invitrogen, cat. # WG1403BX10) for the mu2 blot. For controls, 2 ng of phospho-mu2 or 20 ng mu2/Flag proteins were loaded in the last well of each gel. After SDS-PAGE, samples on each gel were transferred to PVDF membrane using an iBlot and membranes were blocked for one hour in TBST+5% milk, followed by wash 3× for 5-10 min with TBST. Criterion gels were probed with rabbit anti-phospho-mu2 (1:5000; a rabbit polyclonal antibody produced by New England Peptide and affinity purified at Lexicon) in TBST+5% BSA, whereas, NuPAGE gels were probed with mouse anti-Flag (1:500; Sigma, cat. # F1804) in TBST+5% milk, and these primary antibodies were incubated overnight at 4° C. on a rocker. […]

Chain of AAK1 (full length human) in HEK293F cells (Q2M2I8 1-822 limits assumed): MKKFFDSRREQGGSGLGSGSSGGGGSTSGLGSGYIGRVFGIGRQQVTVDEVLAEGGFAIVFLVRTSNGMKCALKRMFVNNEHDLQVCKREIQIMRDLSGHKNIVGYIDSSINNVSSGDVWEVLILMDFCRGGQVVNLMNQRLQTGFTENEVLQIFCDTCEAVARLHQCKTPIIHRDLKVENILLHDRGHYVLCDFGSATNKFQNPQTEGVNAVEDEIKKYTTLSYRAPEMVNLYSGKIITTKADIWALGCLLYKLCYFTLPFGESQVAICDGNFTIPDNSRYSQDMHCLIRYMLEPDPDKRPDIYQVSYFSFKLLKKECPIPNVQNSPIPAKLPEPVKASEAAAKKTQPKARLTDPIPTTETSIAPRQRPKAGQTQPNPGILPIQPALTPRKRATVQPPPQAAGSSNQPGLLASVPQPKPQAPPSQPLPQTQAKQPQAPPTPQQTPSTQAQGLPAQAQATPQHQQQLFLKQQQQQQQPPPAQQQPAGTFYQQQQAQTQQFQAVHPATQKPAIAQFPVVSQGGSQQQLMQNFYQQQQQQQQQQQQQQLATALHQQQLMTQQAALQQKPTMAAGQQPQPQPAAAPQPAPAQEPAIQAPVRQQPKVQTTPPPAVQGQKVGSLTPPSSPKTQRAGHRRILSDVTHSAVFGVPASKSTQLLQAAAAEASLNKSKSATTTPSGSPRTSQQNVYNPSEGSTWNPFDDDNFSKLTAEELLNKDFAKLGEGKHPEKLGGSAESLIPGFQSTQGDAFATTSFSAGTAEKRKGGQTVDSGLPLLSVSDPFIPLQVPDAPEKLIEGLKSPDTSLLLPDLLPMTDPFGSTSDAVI
T1 sequence (Q2M2I8 whole entry): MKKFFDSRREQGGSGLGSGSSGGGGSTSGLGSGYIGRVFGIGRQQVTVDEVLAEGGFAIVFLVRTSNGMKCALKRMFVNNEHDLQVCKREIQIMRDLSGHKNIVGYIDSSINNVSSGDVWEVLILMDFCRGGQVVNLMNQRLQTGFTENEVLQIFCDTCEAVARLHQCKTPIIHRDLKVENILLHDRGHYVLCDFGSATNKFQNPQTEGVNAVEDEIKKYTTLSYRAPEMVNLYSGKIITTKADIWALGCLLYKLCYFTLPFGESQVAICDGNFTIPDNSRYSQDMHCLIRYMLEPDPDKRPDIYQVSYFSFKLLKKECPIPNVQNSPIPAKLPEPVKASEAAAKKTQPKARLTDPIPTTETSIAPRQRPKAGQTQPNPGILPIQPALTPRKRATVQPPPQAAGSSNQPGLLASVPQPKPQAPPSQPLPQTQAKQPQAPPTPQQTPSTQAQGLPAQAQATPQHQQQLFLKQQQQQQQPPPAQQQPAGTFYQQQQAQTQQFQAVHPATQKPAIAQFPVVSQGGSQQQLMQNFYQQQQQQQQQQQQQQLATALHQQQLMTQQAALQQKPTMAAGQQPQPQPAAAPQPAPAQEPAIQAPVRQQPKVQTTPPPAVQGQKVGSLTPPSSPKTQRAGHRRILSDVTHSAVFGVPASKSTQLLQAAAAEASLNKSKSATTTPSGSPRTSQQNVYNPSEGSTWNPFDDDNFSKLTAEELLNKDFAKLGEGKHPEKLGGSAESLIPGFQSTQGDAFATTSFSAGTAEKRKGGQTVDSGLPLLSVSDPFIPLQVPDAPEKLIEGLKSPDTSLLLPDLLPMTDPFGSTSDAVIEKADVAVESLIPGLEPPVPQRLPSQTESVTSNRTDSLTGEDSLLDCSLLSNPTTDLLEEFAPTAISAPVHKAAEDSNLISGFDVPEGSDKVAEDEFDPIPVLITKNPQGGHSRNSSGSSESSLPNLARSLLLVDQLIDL

SMILES	IC50 (GST-Xa-hAAK1; IC50 ranges) [nM]	IC50 [1] [nM]	IC50 (GST-Xa-hAAK1; numeric values) [nM]
COC(=O)Nc1cc2c(cn1)COc1cc(OCC(C)(N)CC(C)C)ccc1-2 (racemic) [Example 60, methyl (8-((2-amino-2,4-dimethylpentyl)oxy)-5H-chromeno[3,4-c]pyridin-2-yl)carbamate]	1 to 10	1 to 10	
CC(=O)Nc1cc2c(cn1)COc1c-2ccc(OCC(C)(N)CC(C)C)c1OC(F)F (racemic) [Example 65, N-(8-((2-amino-2,4-dimethylpentyl)oxy)-7-(difluoromethoxy)-5H-chromeno[3,4-c]pyridin-2-yl)acetamide]	< 1	< 1	
CC(C)C[C@H](N)COc1ccc2c(c1)OC(C(F)(F)F)c1cnccc1-2 (single isomer, unassigned; diastereomer 1) [Example 52]	10 to 100	10 to 100	
CC1Oc2cc(OCC(N)CC(C)(C)F)ccc2-c2ccncc21 (stereo not shown) [Example 26, 4-fluoro-4-methyl-1-(5-methyl-5H-chromeno[3,4-c]pyridin-8-yloxy)pentan-2-amine]	1 to 10	10 to 100	
CC(=O)Nc1cc2c(cn1)COc1c-2ccc(OC[C@@H](N)CC(C)C)c1OC(F)F [Example 59, (S)—N-(8-((2-amino-4-methylpentyl)oxy)-7-(difluoromethoxy)-5H-chromeno[3,4-c]pyridin-2-yl)acetamide]	1 to 10	< 1	
COC(=O)Nc1cc2c(cn1)COc1c-2ccc(OC[C@@](C)(N)CC(C)C)c1OC(F)F [Example 89, (S)-methyl (8-((2-amino-2,4-dimethylpentyl)oxy)-7-(difluoromethoxy)-5H-chromeno[3,4-c]pyridin-2-yl)carbamate]	< 1		
CC(=O)Nc1cc2c(cn1)COc1c-2ccc(OC[C@@](C)(N)CC(C)C)c1Cl [Example 91, (S)—N-(8-((2-amino-2,4-dimethylpentyl)oxy)-7-chloro-5H-chromeno[3,4-c]pyridin-2-yl)acetamide]	< 1		
COC(=O)Nc1cc2c(cn1)COc1c-2ccc(OC[C@@](C)(N)CC(C)C)c1Cl [Example 92, (S)-methyl (8-((2-amino-2,4-dimethylpentyl)oxy)-7-chloro-5H-chromeno[3,4-c]pyridin-2-yl)carbamate]	1 to 10		
CCOC(=O)Nc1cc2c(cn1)COc1c-2ccc(OC[C@@](C)(N)CC(C)C)c1Cl [Example 93, (S)-ethyl (8-((2-amino-2,4-dimethylpentyl)oxy)-7-chloro-5H-chromeno[3,4-c]pyridin-2-yl)carbamate]			0.89
COC(=O)Nc1cc2c(cn1)COc1cc(OC[C@@](C)(N)CC(C)C)c(F)cc1-2 [Example 95, (S)-methyl (8-((2-amino-2,4-dimethylpentyl)oxy)-9-fluoro-5H-chromeno[3,4-c]pyridin-2-yl)carbamate]			2.1
[2H]C1([2H])Oc2cc(OC[C@@](C)(N)CC(C)C)ccc2-c2cc(NC(=O)OC)ncc21 [Example 97, (S)-methyl (8-((2-amino-2,4-dimethylpentyl)oxy)-5,5-deutero-5H-chromeno[3,4-c]pyridin-2-yl)carbamate]	1 to 10		
CC(=O)Nc1cc2c(cn1)COc1cc(OC[C@@](C)(N)CC(C)C)cc(F)c1-2 [Example 98, (S)—N-(8-((2-amino-2,4-dimethylpentyl)oxy)-10-fluoro-5H-chromeno[3,4-c]pyridin-2-yl)acetamide]	1 to 10		
CC(C)C[C@](C)(N)COc1cc(F)c2c(c1)OCc1cnc(N)cc1-2 [Example 99, (S)-8-((2-amino-2,4-dimethylpentyl)oxy)-10-fluoro-5H-chromeno[3,4-c]pyridin-2-amine]	1 to 10		
CC(=O)Nc1cc2c(cn1)COc1cc(OC[C@H](CC(C)C)NS(C)(=O)=O)ccc1-2 [Example 101, (S)—N-(8-((4-methyl-2-(methylsulfonamido)pentyl)oxy)-5H-chromeno[3,4-c]pyridin-2-yl)acetamide]	10 to 100		
Cc1cc2c(cn1)c(=O)oc1cc(OC[C@@](C)(N)CC(C)C)c(Cl)cc12 [Example 103, (S)-8-((2-amino-2,4-dimethylpentyl)oxy)-9-chloro-2-methyl-5H-chromeno[3,4-c]pyridin-5-one]	100 to 1200		

More lines, now with the values ahead:

IC50 (GST-Xa-hAAK1; IC50 ranges) [nM]	IC50 [1] [nM]	IC50 (GST-Xa-hAAK1; numeric values) [nM]	SMILES
< 1	1 to 10		COc1c(OCC(C)(N)CC(C)C)ccc2c1OCc1cnc(NC(C)=O)cc1-2 (racemic) [Example 66, N-(8-((2-amino-2,4-dimethylpentyl)oxy)-7-methoxy-5H-chromeno[3,4-c]pyridin-2-yl)acetamide]
< 1	1 to 10		COC(=O)Nc1cc2c(cn1)COc1c-2ccc(OCC(C)(N)CC(C)C)c1OC(F)F (racemic) [Example 76, methyl (8-((2-amino-2,4-dimethylpentyl)oxy)-7-(difluoromethoxy)-5H-chromeno[3,4-c]pyridin-2-yl)carbamate]
1 to 10	1 to 10		CC(C)C[C@H](N)COc1cc2c(cc1Cl)-c1ccncc1[C@@H](C(F)(F)F)O2 (single isomer, unassigned) [Example 27b]
1 to 10	1 to 10		CC(=O)Nc1cc2c(cn1)COc1cc(OC[C@](C)(N)CC(C)C)ccc1-2 [Example 46, (R)—N-(8-((2-amino-2,4-dimethylpentyl)oxy)-5H-chromeno[3,4-c]pyridin-2-yl)acetamide]
1 to 10	10 to 100		CC1Oc2cc(OCC(N)CCC(F)(F)F)ccc2-c2ccncc21 (stereo not shown) [Example 57, 5,5,5-trifluoro-1-((5-methyl-5H-chromeno[3,4-c]pyridin-8-yl)oxy)pentan-2-amine]
	1 to 10		COC(=O)Nc1cc2c(cn1)COc1cc(OCC(C)(N)CC(C)C)ccc1-2 (stereo not shown) [Example 70, methyl (8-((2-amino-2,4-dimethylpentyl)oxy)-5H-chromeno[3,4-c]pyridin-2-yl)carbamate]
1 to 10			CC(C)C[C@](C)(N)COc1ccc2c(c1)OCc1cnc(N)cc1-2 [Example 90, (S)-8-((2-amino-2,4-dimethylpentyl)oxy)-5H-chromeno[3,4-c]pyridin-2-amine]
100 to 1200			CC(=O)Nc1cc2c(cn1)COc1cc(OC[C@H](CC(C)C)NC(C)=O)ccc1-2 [Example 100, (S)—N-(8-((2-acetamido-4-methylpentyl)oxy)-5H-chromeno[3,4-c]pyridin-2-yl)acetamide]
		556	Cc1cc2c(cn1)c(=O)oc1cc(OC[C@@](C)(N)CC(C)C)ccc12 [Example 102, (S)-8-((2-amino-2,4-dimethylpentyl)oxy)-2-methyl-5H-chromeno[3,4-c]pyridin-5-one]

— US20160222021A1, “ARYL ETHER-BASE KINASE INHIBITORS” (BRISTOL-MYERS SQUIBB COMPANY, priority 2013, published 2016)
